The results in this text go back to patent US11292785B2, “Nitrogen-containing benzoheterocycle compound comprising carboxylic acid group, preparation method and use thereof” (Sichuan Kelun-Biotech Biopharmaceutical Co., Ltd., priority 2018, dated 2022).

SMILES strings stand for the structures. Where two headings read alike, the source gives them in different places. Where only a bound is given, the exact number is not on record here.

Series [1] has as its target T1, CYP 3A4M (Homo sapiens, UniProt P08684).
T1 construct: from tissue; host or cells: human liver microsomes
Briefly: CYP 3A4M inhibition test in human liver microsomes (probe midazolam). Format: in vitro ADME. Particulars: probe substrate midazolam, read-out: CYP 3A4M (μM), half inhibition concentration (IC50). How it is done:
Probe substrate: Midazolam, National Institute of Control of Pharmaceutical & Biological Products, 171265.
Positive control: Ketoconazole, purchased from Dingdang Chemical, DTYC 0516-17.
(§1) A probe substrate (50 μl), PBS (49 μl) and a test compound in different concentrations (0.05 μM, 0.15 μM, 0.5 μM, 1.5 μM, 5 μM, 15 μM, 50 μM) or a positive control (1 μl) were mixed with human liver microsomes (HLM, 50 μl) to give 150 μl of a mixed liquid, which was subjected to pre-incubation (37° C.) for 5 min, then added with NADPH (50 μl) and incubated for 30 min. The reaction was quenched by adding 200 μl of glacial acetonitrile. An appropriate volume of an internal standard substance was added, and after vortex treatment and centrifugation, the supernatant was obtained.
(§2) The detection was performed by using LC-MS/MS. The mass spectrometer was API 5500, the liquid chromatograph was Waters ACQUITY UPLC I-CLASS system. The chromatographic column was Hypersil GOLD C18, 1.9 μm particle size, 50×2.1 mm; mobile phase A: water+0.1% formic acid, mobile phase B: acetonitrile; flow rate: 0.4 ml/min, column temperature: 40° C. The ion source as used was ESI source positive ion mode, and the scanning mode was Multiple Reaction Monitoring (MRM).
(§3) By using solvent group (DMSO) as negative control, the concentrations of the main metabolite converted from the probe substrate in the case of different concentrations of the test compound were measured, to determine the half inhibition concentration of the compound (IC50).
On the technique in general: Liver microsomes are a subcellular fraction often used to study metabolism.

Series [2] deals with T2, CYP 3A4T (Homo sapiens, UniProt P08684).
T2 construct: from tissue; host or cells: human liver microsomes
Briefly: CYP 3A4T inhibition test in human liver microsomes (probe testosterone). The series is classed as in vitro ADME. Particulars: probe substrate testosterone, read-out: CYP 3A4T (μM), half inhibition concentration (IC50). The method, then:
Probe substrate: Testosterone, European Pharmacopoeia (EP) Reference Standard, Sigma-Aldrich, T0100000.
Positive control: Ketoconazole, Dingdang Chemical, DTYC 0516-17.
as §1, §2, §3

A short description of series [3]: Rat pharmacokinetic (PK) studies, plasma and liver. The series is classed as in vivo. Particulars: male SD rats, p.o. 5 mg/kg; for AUC(0-t) / Cmax / bioavailability / half-life / Kp: rat, po; for Kp: male, SD, liver relative to plasma, 5 mg/kg. How it is done: The test compound was administered intragastrically (p.o.) to male SD rats at a dose of 5 mg/kg. The solvent system was 0.5% MC during the p.o. administration. After p.o. administration, blood was collected for PK studies at 5 min, 15 min, 30 min, 1 h, 2 h, 4 h, 6 h, 8 h, and 24 h. After p.o. administration, liver tissues were collected at 15 min, 1 h, 4 h, 8 h and 24 h, and the liver tissue sample, after being subjected to protein precipitation treatment, was analyzed by a LC-MS/MS. The mass spectrometer was API 5500, and the liquid chromatograph was Waters ACQUITY I CLASS system: chromatographic column: Agela ASB C18 column (2.1 mm×50 mm, 1.9 μm); mobile phase A: water+0.1% formic acid, mobile phase B: acetonitrile; flow rate: 0.4 mL/min, column temperature: 40° C. The ion source as used was ESI source positive ion mode, and the scanning mode was Multiple Reaction Monitoring (MRM).

Series [4] addresses T3, CCR2 (Homo sapiens, UniProt P41597).
T3 construct: host or cells: HEK293
Briefly: Inhibition test on activity of CCR2 in cells (calcium fluorescence, MCP1 stimulation). Particulars: HEK293 cells stably expressing CCR2, ligand MCP1. The series is classed as cell-based. An excerpt:
(§4) HEK293 cells that stably express CCR2 and CCR5 receptor proteins were first labeled with calcium ion sensitive fluorescent probe and then stimulated with corresponding ligands (MCP1 and RANTES). After the stimulation, the receptors were activated to trigger the release of the calcium ions from endoplasmic reticulum to cytoplasm. And once the calcium ions were captured by the fluorescent probe, the fluorescent signal could be triggered. The inhibition of compounds on CCR2 and CCR5 can be evaluated by detecting the intensity of the fluorescent signal.
(§5) To each well of the 384-well plates, 2×10^4 HEK293 cells were added and cultured overnight. After being labelled by fluorescent probe, MCP1 and RANTES in different concentrations were added, and the fluorescent signal was read. The fluorescence signal was plotted in relation to the ligand concentration, and according to the four-parameter model, IC50 values were calculated as the ligand concentrations of the CCR2 and CCR5 for the subsequent detection of the compounds.
(§6) By referring to the above results, cells were incubated with the test compound in different concentrations (5000 nM, 1250 nM, 313 nM, 78 nM, 20 nM, 4.8828 nM, 1.2207 nM, 0.3052 nM, 0.0763 nM, and 0.0191 nM), and after MCP1 and RANTES were added thereto, the fluorescent signal was read. The inhibition activity of each concentration group was calculated, wherein the solvent group (not containing the compound) was as the negative control, and the Buffer group (not containing any ligand) was as the blank control: Relative inhibition activity percentage=1−(fluorescent signal of each concentration group-fluorescent signal of the blank group)/(fluorescent signal of the solvent group-fluorescent signal of the blank group)*100%.
(§7) The inhibition activity percentage of each concentration group was plotted in relation to the concentration of the compound, and the curve was fitted according to the four-parameter model, IC50 values were calculated: y=min+(max−min)/(1+(x/IC50)^(−Hillslope))
(§8) wherein y is the relative inhibition activity percentage; max, min are the maximum and minimum values of the fitted curve, respectively; x is the concentration of the compound, and Hillslope is the slope of the curve.

The target in series [5] is T4, CCR5 (Homo sapiens, UniProt P51681).
T4 construct: host or cells: HEK293
Nature of the series: Inhibition test on activity of CCR5 in cells (calcium fluorescence, RANTES stimulation). The series is classed as cell-based. Particulars: HEK293 cells stably expressing CCR5, ligand RANTES.
Text: as §4, §5, §6, §7, §8

In series [6] the target is T5, CYP 1A2 (Homo sapiens, UniProt P05177).
T5 construct: from tissue; host or cells: human liver microsomes
T5 sequence (P05177 1-516): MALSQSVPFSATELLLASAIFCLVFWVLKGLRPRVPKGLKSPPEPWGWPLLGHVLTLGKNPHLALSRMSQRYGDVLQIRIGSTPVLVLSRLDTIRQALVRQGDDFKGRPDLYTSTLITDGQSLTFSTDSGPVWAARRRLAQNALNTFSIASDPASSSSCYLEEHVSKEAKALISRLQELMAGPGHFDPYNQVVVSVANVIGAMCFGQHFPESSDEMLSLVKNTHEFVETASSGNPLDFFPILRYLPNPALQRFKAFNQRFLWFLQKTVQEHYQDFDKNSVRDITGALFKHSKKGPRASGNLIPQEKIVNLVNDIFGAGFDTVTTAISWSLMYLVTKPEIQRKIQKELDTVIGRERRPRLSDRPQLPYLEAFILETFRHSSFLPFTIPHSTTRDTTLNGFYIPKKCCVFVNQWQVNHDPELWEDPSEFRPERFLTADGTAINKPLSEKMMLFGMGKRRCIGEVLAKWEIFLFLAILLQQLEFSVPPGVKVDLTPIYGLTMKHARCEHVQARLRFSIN
Nature of the series: CYP 1A2 inhibition test in human liver microsomes (probe phenacetin). The series is classed as in vitro ADME. Particulars: probe substrate phenacetin, read-out: CYP 1A2 (μM), half inhibition concentration (IC50). The method, then: Probe substrate: Phenacetin, National Institute of Control of Pharmaceutical & Biological Products, 100095.
Positive control: alpha-naphthoflavane, ACras, A0331533.
as §1, §2, §3

Series [7] deals with T6, CYP 2D6 (Homo sapiens, UniProt P10635).
T6 construct: from tissue; host or cells: human liver microsomes
Briefly: CYP 2D6 inhibition test in human liver microsomes (probe dextromethorphan). Format: in vitro ADME. Particulars: probe substrate dextromethorphan, read-out: CYP 2D6 (μM), half inhibition concentration (IC50). The method, then:
Probe substrate: Dextromethorpha, Beijing Jinbao, 100201.
Positive control: Quinidine, Damas-bata, P1176507.
as §1, §2, §3

Series [8] deals with T7, hERG potassium ion channels (Homo sapiens, UniProt Q12809).
T7 construct: expressed in transfected cells; host or cells: HEK293
Nature of the series: hERG inhibition test, manual patch clamp, HEK293 cells over-expressing hERG. The series is classed as cell-based. Particulars: tested at 1 μM and 10 μM. How it is done:
Different concentrations (1 μM and 10 μM) of the test compound and 30 μM positive control Quinidine were formulated. HEK293 cells over-expressing hERG potassium ion channels were cultured in 5% CO2 incubator at 37° C. When the density of the cells reaches 80% of the Petri dish, the cells was washed with phosphate buffer solution (PBS), followed by digestion with Trypsin/EDTA for 2-3 minutes. The digestion was terminated by adding cell culture medium, then the solution was transferred and centrifuged to remove the supernatant, and added with cell culture medium (DMEM, 15% fetal bovine serum and 1% 100×Penicillin-Streptomycin). After uniformly mixing, the cells were dripped onto a circular slide and cultured in a Petri dish to obtain the test cells.
Channel current was recorded by applying electrophysiological manual patch clamp in a whole-cell recording mode: extracellular fluid was perfused until the current was stable, after the peak value of the tail current (control current value) was recorded, the extracellular fluid containing different concentrations of the test compound was perfused, continuously recording was conducted until the inhibition effect of the medicine on the hERG current reach stable, and the peak value of the tail current (current value after drug administration) was recorded.
In general terms: Block of hERG is tested as a sign of cardiac risk.

T7 sequence (Q12809 whole entry): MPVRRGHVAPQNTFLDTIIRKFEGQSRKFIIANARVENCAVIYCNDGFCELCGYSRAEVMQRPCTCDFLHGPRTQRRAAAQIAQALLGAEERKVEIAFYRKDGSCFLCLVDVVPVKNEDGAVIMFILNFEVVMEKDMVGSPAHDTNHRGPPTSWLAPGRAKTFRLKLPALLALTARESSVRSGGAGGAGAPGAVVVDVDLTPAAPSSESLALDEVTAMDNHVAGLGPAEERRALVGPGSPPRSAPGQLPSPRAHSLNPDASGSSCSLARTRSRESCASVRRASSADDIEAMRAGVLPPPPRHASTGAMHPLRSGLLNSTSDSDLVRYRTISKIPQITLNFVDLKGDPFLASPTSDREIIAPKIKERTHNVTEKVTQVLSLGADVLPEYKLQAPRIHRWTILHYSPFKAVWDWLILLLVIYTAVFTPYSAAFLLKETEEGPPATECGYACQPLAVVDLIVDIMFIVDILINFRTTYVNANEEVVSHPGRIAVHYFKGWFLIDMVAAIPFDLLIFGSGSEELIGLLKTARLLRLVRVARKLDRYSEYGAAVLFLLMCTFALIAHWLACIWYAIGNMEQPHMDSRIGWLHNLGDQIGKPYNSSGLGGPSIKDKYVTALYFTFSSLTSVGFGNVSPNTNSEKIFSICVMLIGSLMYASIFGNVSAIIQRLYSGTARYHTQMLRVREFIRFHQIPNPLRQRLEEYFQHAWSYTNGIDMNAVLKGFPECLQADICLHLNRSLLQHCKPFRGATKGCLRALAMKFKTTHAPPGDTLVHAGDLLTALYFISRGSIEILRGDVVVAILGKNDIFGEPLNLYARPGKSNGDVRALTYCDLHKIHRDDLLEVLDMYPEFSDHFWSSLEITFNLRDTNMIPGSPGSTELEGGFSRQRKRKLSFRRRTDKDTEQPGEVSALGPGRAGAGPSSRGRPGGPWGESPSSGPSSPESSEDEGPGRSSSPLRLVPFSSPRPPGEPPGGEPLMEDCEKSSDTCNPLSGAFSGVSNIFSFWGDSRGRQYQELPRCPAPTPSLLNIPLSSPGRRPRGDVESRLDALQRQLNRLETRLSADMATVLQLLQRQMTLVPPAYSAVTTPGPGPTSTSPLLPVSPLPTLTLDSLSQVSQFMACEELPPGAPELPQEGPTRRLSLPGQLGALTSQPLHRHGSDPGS
T3 sequence (P41597 whole entry): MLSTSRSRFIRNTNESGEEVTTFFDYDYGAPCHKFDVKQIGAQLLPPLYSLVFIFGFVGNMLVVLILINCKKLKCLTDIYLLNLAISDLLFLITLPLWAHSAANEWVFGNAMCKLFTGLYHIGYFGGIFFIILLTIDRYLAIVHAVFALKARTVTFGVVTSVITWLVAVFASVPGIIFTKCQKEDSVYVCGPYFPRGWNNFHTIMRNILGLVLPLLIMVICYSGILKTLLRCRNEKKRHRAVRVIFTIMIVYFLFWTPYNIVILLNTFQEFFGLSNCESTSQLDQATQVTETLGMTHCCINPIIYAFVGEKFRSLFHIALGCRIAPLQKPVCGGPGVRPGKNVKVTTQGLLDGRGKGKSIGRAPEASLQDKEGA
T1 sequence (P08684 whole entry): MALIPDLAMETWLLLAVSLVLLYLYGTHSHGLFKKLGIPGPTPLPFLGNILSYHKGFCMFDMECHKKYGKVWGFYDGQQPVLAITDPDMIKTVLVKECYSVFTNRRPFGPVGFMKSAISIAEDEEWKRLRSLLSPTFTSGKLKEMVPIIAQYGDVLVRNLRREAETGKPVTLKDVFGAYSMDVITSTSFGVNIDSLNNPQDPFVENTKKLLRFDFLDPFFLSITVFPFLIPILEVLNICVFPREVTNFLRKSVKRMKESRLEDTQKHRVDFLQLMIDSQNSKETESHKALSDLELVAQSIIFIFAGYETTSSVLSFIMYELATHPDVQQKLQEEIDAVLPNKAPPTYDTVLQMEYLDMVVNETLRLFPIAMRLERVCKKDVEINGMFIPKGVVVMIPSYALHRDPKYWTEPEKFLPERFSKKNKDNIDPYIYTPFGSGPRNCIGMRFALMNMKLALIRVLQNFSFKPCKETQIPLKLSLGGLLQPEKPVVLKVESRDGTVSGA
T2 sequence (P08684 whole entry): as above
T6 sequence (P10635 whole entry): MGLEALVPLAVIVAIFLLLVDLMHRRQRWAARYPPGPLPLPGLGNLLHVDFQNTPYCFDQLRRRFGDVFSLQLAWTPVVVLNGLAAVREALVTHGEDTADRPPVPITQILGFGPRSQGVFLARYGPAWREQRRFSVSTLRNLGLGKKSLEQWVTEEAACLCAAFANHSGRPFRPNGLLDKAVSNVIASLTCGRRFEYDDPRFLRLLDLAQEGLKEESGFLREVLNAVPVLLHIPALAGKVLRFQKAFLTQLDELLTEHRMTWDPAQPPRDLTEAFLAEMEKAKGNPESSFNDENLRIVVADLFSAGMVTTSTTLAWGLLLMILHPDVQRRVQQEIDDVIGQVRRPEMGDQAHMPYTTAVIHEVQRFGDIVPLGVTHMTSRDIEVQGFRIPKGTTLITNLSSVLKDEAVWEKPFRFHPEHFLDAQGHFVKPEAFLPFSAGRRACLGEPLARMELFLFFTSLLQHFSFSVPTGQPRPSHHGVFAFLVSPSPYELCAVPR
T4 sequence (P51681 whole entry): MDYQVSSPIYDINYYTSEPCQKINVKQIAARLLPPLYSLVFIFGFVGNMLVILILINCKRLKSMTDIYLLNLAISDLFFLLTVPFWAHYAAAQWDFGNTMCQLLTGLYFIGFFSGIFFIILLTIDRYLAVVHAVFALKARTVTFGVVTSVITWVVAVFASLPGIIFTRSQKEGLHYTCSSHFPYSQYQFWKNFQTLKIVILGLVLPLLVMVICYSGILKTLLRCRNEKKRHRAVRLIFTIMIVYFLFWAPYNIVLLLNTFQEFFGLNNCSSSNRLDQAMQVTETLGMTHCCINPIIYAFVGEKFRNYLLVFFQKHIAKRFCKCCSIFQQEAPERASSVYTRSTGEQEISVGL

In general, AUC(0-t) refers to the area under the concentration-time curve up to a stated or last time point. High values mean more exposure, low ones less exposure. Usually Cmax stands for the peak of the concentration-time curve. One may read the bioavailability as the share of a dose that reaches the circulation, judged against a reference dose that is usually intravenous. Lower therefore signals poor availability. One may read the half-life as how long it takes for the measured level to halve. Higher therefore signals slow decline. Turning to `CCCCOCCOc1ccc(-c2ccc3c(c2)/C=C(/C(=O)Nc2ccc([S@@+]([O-])Cc4cncn4CCC)cc2)CCCN3CC(C)C)cc1` [Cenicriviroc, reference compound], in series [1], the IC50 amounted to 3.43 µM. Also, the IC50 in series [2] came to 12.7 µM. Moreover, in series [3] (liver), the AUClast was 6033 ± 2193 ng·h/g, the peak level (Cmax) was 688 ± 229 ng/g and the half-life is 3.93 ± 1.88 h. In series [3] (blood plasma), this molecule had an AUC(0-t) of 6.33 ± 3.44 µg·h/mL, a Cmax of 0.746 ± 0.428 µg/mL, a bioavailability of 10.8 ± 3.5% and a half-life of 4.33 ± 0.87 h.
For `CCCCOCCOc1ccc(-c2ccc3c(c2)/C=C(/C(=O)Nc2ccc([S@@+]([O-])Cc4cncn4CCC)cc2)CCCN3CC(C)(C)C(=O)O)cc1` [Compound 1, (S,E)-3-(8-(4-(2-butoxyethoxy)phenyl)-5-((4-(((1-propyl-1H-imidazol-5-yl)methyl)sulfinyl)phenyl)carbamoyl)-3,4-dihydrobenzo[b]azacyclooctatetraen-1(2H)-yl)-2,2-dimethylpropanoic acid], the IC50 in series [4] was 0.74 nM; in series [5] it was 0.33 nM; in series [6], more than 10 µM; in series [7], more than 10 µM.
Consider `CCCCOCCOc1ccc(-c2ccc3c(c2)/C=C(/C(=O)Nc2ccc([S+]([O-])Cc4c(C)ncn4CCC)cc2)CCCN3CC(C)(C)C(=O)O)cc1` (stereo not shown) [Compound 2, (E)-3-(8-(4-(2-butoxyethoxy)phenyl)-5-((4-(((4-methyl-1-propyl-1H-imidazol-5-yl)methyl)sulfinyl)phenyl)carbamoyl)-3,4-dihydrobenzo[b]azacyclooctatetraen-1(2H)-yl)-2,2-dimethylpropanoic acid], for which the IC50 was 6.38 nM in series [4]; 3.18 nM in series [5]; more than 10 µM in series [6]; more than 10 µM in series [7]; 27.8 µM in series [1]; 62.2 µM in series [2]. In series [8], this molecule registered an IC50 of more than 10 µM.
Regarding `CCCCOCCOc1ccc(-c2ccc3c(c2)/C=C(/C(=O)Nc2ccc([S@@+]([O-])Cc4c(C)ncn4CCC)cc2)CCCN3CC(C)(C)C(=O)O)cc1` [Compound 3], the IC50 in series [4] was 0.81 nM; in series [5], 1.48 nM; in series [6] it was more than 10 µM; in series [7], more than 10 µM; in series [1], 13.3 µM; in series [2], 32.3 µM. Also, the IC50 in series [8] is more than 10 µM. The same molecule returned an AUClast in series [3] (liver) of 386938 ± 30242 ng·h/g. In addition, the Kp is approximately 2340 in series [3] (AUClast liver vs plasma, read-out: exposure in the liver relative to that in the plasma) and approximately 530 in series [3] (Cmax liver vs plasma, read-out: drug concentration in the liver relative to that in the plasma). The AUC(0-t) in series [3] (blood plasma) is 0.165 ± 0.036 µg·h/mL. Besides, the highest concentration (Cmax) in series [3] (blood plasma) worked out at 0.0497 ± 0.0106 µg/mL; in series [3] (liver) it was 26600 ± 200 ng/g. In series [3] (blood plasma), this molecule gave a bioavailability of 20.9 ± 4.5%. Further, the half-life in series [3] (blood plasma) was 1.93 ± 0.37 h; in series [3] (liver), 7.2 ± 0.5 h.
In the case of `CCCCOCCOc1ccc(-c2ccc3c(c2)/C=C(/C(=O)Nc2ccc([S@+]([O-])Cc4c(C)ncn4CCC)cc2)CCCN3CC(C)(C)C(=O)O)cc1` [Compound 4], the IC50 is 6.12 nM in series [4]; 2.82 nM in series [5]; more than 10 µM in series [6]; more than 10 µM in series [7]; 15.3 µM in series [1]; 48.3 µM in series [2]. This molecule registered an IC50 in series [8] of more than 10 µM.
